Measured values reported in ChEMBL document CHEMBL2046371, “Synthesis and study of cyclic pronucleotides of 5-fluoro-2'-deoxyuridine” (Bioorg Med Chem Lett, 2012).

How the values were obtained:
[1] = Cytotoxicity against thymidine kinase-deficient mouse LMTK cells after 5 days by MTT assay; format: cell-based; settings: L-M(TK-), 120 h
A2780 = assay: Cytotoxicity against human A2780 cells after 5 days by MTT assay; format: functional, cell-based; settings: A2780, 120 h

Row | Compound | IC50 [1] [µM] | IC50 (A2780) [µM]
1 | COC(=O)[C@H](C)N[P@]1(=O)OC[C@H]2O[C@@H](n3cc(F)c(=O)[nH]c3=O)C[C@@H]2O1 | 60.7 | 1.4
2 | COC(=O)[C@H](C)N[P@@]1(=O)OC[C@H]2O[C@@H](n3cc(F)c(=O)[nH]c3=O)C[C@@H]2O1 | 12.7 | 1.4
3 | COC(=O)CNP1(=O)OC[C@H]2O[C@@H](n3cc(F)c(=O)[nH]c3=O)C[C@@H]2O1 (stereo not given in full) | 141 | 0.55
4 | COC(=O)[C@H](C)NP(=O)(OC[C@H]1O[C@@H](n2cc(F)c(=O)[nH]c2=O)C[C@@H]1O)Oc1ccccc1 (stereo not given in full) | 45.6 | 2.4
5 | O=c1[nH]c(=O)n([C@H]2C[C@H](O)[C@@H](CO)O2)cc1F [FLOXURIDINE] | 4.5 | 0.026
